The record followed here is patent publication US7163940B2, “Pyrazolopyridinyl pyrimidine therapeutic compounds” (SmithKline Beecham Corporation, priority 2000, dated 2007).

For one test, the system named is HSV-1. As to the kind of experiment: HSV-1 replication in infected Vero 76 cells, viral DNA hybridization capture assay. Type of test: cell-based. The note with it: HSV-1, Vero 76 cells, MOI=0.001, 40–48 hours incubation. How it is done:
Vero 76 cells were maintained in MEM with Earle's salts, L-glutamine, 8% FBS (Hyclone, A-1111-L) and 100 units/mL Penicillin-100 μg/mL Streptomycin. For assay conditions, FBS was reduced to 2%. Cells are seeded into 96-well tissue culture plates at a density of 5×10^4 cells/well after being incubated for 45 min at 37° C. in the presence of HSV-1 or HSV-2 (MOI=0.001). Test compounds are added to the wells and the plates are incubated at 37° C. for 40–48 hours. Cell lysates are prepared as follows: media was removed and replaced with 150 μL/well 0.2 N NaOH with 1% Igepal CA 630 or NP-40. Plates were incubated up to 14 days at room temperature in a humidified chamber to prevent evaporation. • (b) Preparation of Detection DNA.
For the detection probe, a gel-purified, digoxigenin-labeled, […] PCR fragment of the HSV UL-15 sequence was utilized. PCR conditions included 0.5 μM primers, 180 μM dTP, 20 μM dUTP-digoxigenin (Boehringer Mannheim 1558706), 200 μM each of dATP, dCTP, and dGTP, 1×PCR Buffer II (Perkin Elmer), 2.5 mM MgCl2, 0.025 units/μL of AmpliTaq Gold polymerase (Perkin Elmer), and 5 ng of gel-purified HSV DNA per 100 μL. Extension conditions were 10 min at 95° C., followed by 30 cycles of 95° C. for 1 min, 55° C. for 30 sec, and 72° C. for 2 min. The amplification was completed with a 10-min incubation at 72° C. Primers were selected to amplify a 728 bp probe spanning a section of the HSV1 UL15 open reading frame (nucleotides 249–977). Single-stranded transcripts were purified with Promega M13 Wizard kits. The final product was mixed 1:1 with a mixture of 6 M GuSCN, 100 mM EDTA and 200 μg/mL herring sperm DNA and stored at 4° C. • (c) Preparation of Capture Plates.
The capture DNA plasmid (HSV UL13 region in pUC) was linearized by cutting with Xba I, denatured for 15 min at 95° C. and diluted immediately into Reacti-Bind DNA Coating Solution (Pierce, 17250, diluted 1:1 with TE buffer, pH 8) at 1 ng/μL 75 μL/well were added to Corning (#3922 or 9690) white 96-well plates and incubated at room temperature for at least 4 hrs before washing twice with 300 μL/well 0.2×SSC/0.05% Tween-20 (SSC/T buffer). The plates were then incubated overnight at room temperature with 150 μL/well 0.2 N NaOH, 1% IGEPAL and 10 μg/mL herring sperm DNA. • (d) Hybridization.
Twenty-seven (27) μL of cell lysate was combined with 45 μL of hybridization solution (final concentration: 3M GuSCN, 50 mM EDTA, 100 μg/ml salmon sperm DNA, 5× Denhardt's solution, 0.25×APE, and 5 ng of the digoxigenin-labeled detection probe). APE is 1.5 M NH4-acetate, 0.15 M ammonium phosphate, and 5 mM EDTA adjusted to pH 6.0. Mineral oil (50 μL) was added to prevent evaporation. The hybridization plates were incubated at 95° C. for 10 minutes to denature the DNA, then incubated at 42° C. overnight. The wells were washed 6× with 300 μL/well SSC/T buffer then incubated with 75 μL/well anti-digoxigenin-HRP-conjugated antibody (Boehringer Mannheim 1207733, 1:5000 in TE) for 30 min at room temperature. The wells were washed 6× with 300 μL/well with PBS/0.05% Tween-20 before 75 μL/well SuperSignal LBA substrate (Pierce) was added. The plates were incubated at room temperature for 30 minutes and chemiluminescence was measured in a Wallac Victor reader. • e) Results.
The following results were obtained for HSV-1.
Regarding `Cc1cc(-c2c(-c3ccc(F)cc3)nn3c(NC4CCCC4)cccc23)nc(NC2CCCC2)n1` [Example 8, N-Cyclopentyl-3-[2-(cyclopentylamino)-6-methyl-4-pyrimidinyl]-2-(4-fluorophenyl)pyrazolo[1,5-α]pyridin-7-amine], half-maximal inhibition (IC50) was put at 0.8 µM.

The test is the same for the next values; noted with them: Human alphaherpesvirus 1, Vero 76, HSV-1, Vero 76 cells, MOI=0.001, 40–48 hours incubation.
As for `C=CCNc1nccc(-c2c(-c3ccc(F)cc3)nn3c(NCCCC)cccc23)n1` [Example 39, 3-[2-(Allylamino)-4-pyrimidinyl]-N-butyl-2-(4-fluorophenyl)pyrazolo-[1,5-α]pyridin-7-amine], the IC50 – broadly, the concentration that inhibits the measured activity by half – was found to be 1 µM.
Still for that read-out and setting: the result for `Cc1cc(-c2c(-c3ccc(F)cc3)nn3c(N4CCN(C)CC4)cccc23)nc(NC2CCCC2)n1` [Example 15, N-Cyclopentyl-4-[2-(4-fluorophenyl)-7-(4-methyl-1-piperazinyl)pyrazolo[1,5-α]pyridin-3-yl]-6-methyl-2-pyrimidinamine] reads 5 µM; that for `CCCCNc1cccc2c(-c3ccnc(N4CCOCC4)n3)c(-c3ccc(F)cc3)nn12` [Example 40, N-Butyl-2-(4-fluorophenyl)-3-[2-(4-morpholinyl)-4-pyrimidinyl]pyrazolo[1,5-α]pyridin-7-amine], 15 µM; that for `CCCCNc1cccc2c(-c3ccnc(N4CCN(CCO)CC4)n3)c(-c3ccc(F)cc3)nn12` [Example 41, 2-(4-{4-[7-(Butylamino)-2-(4-fluorophenyl)pyrazolo[1,5-α]pyridin-3-yl]-2-pyrimidinyl}-1-piperazinyl)ethanol], 6 µM.
In the case of `Fc1ccc(-c2nn3c(Cl)cccc3c2-c2ccnc(C3CC3)n2)cc1` [Example 76, 7-Chloro-3-(2-cyclopropylpyrimidin-4-yl)-2-(4-fluorophenyl)pyrazolo[1,5-α]pyridine], the IC50 is > 20 µM.
The same measure, in the same setting: the result for `CCCCNc1nccc(-c2c(-c3ccc(F)cc3)nn3c(N(C)C)cccc23)n1` [Example 34, 3-[2-(Butylamino)-4-pyrimidinyl]-2-(4-fluorophenyl)-N,N-dimethylpyrazolo[1,5-α]pyridin-7-amine] reads 0.3 µM.
`Cc1cc(-c2c(-c3ccc(F)cc3)nn3c(NN)cccc23)nc(NC2CCCC2)n1` [Example 14, N-Cyclopentyl-4-[2-(4-fluorophenyl)-7-hydrazinopyrazolo[1,5-α]pyridin-3-yl]-6-methyl-2-pyrimidinamine]: the 50% inhibitory concentration (IC50) was determined as 5 µM.
Same read-out and setting: next, `OCc1cc(-c2c(-c3ccc(F)cc3)nn3c(NC4CCCC4)cccc23)nc(NC2CCCC2)n1` [Example 22, {2-(Cyclopentylamino)-6-[7-(cyclopentylamino)-2-(4-fluorophenyl)pyrazolo[1,5-α]pyridin-3-yl]-4-pyrimidinyl}methanol]: 5 µM; `CC(C)c1nccc(-c2c(-c3ccc(F)cc3)nn3c(Cl)cccc23)n1` [Example 77, 7-Chloro-2-(4-fluorophenyl)-3-(2-isopropylpyrimidin-4-yl)pyrazolo[1,5-α]pyridine]: > 20 µM; `CCCCNc1nccc(-c2c(-c3ccc(F)cc3)nn3c(N4CCN(C)CC4)cccc23)n1` [Example 35, N-Butyl-4-[2-(4-fluorophenyl)-7-(4-methyl-1-piperazinyl)pyrazolo[1,5-α]pyridin-3-yl]-2-pyrimidinamine]: 0.9 µM.
Same read-out and setting: the result for `CCCCNc1nccc(-c2c(-c3ccc(Br)cc3)nn3c(NCCCC)cccc23)n1` [Example 2, 2-(4-Bromophenyl)-N-butyl-3-[2-(butylamino)-4-pyrimidinyl]pyrazolo[1,5-α]pyridin-7-amine] reads 0.7 µM.
Still for that read-out and setting: next, `CCCCNc1cccc2c(-c3ccnc(NCCCn4ccnc4)n3)c(-c3ccc(F)cc3)nn12` [Example 44, N-Butyl-2-(4-fluorophenyl)-3-(2-{[3-(1H-imidazol-1-yl)propyl]amino}-4-pyrimidinyl)pyrazolo[1,5-α]pyridin-7-amine]: 4 µM; `CNc1cccc2c(-c3ccncc3)c(-c3ccc(F)cc3)nn12` [Example 58, 2-(4-Fluorophenyl)-N-methyl-3-(4-pyridinyl)pyrazolo[1,5-α]pyridin-7-amine]: 10.5 µM; `CCCCNc1nccc(-c2c(-c3ccc(F)cc3)nn3c(NC)cccc23)n1` [Example 49, 3-[2-(Butylamino)-4-pyrimidinyl]-2-(4-fluorophenyl)-N-methylpyrazolo[1,5-α]pyridin-7-amine]: 1.2 µM.
Compound `CCCCNc1cccc2c(-c3ccnc(NC4CC4)n3)c(-c3ccc(F)cc3)nn12` [Example 4, N-Butyl-3-[2-(cyclopropylamino)-4-pyrimidinyl]-2-(4-fluorophenyl)-pyrazolo[1,5-α]pyridin-7-amine] returned an IC50 of 0.6 µM.
Take `CCCCNc1nccc(-c2c(-c3ccc(F)cc3)nn3c(N4CCOCC4)cccc23)n1` [Example 36, N-Butyl-4-[2-(4-fluorophenyl)-7-(4-morpholinyl)pyrazolo[1,5-α]pyridin-3-yl]-2-pyrimidinamine]: it took 0.8 µM to reach half-maximal inhibition (IC50).
On the same count and under the same terms, next, `Cc1cc(-c2c(-c3ccc(F)cc3)nn3c(NC4CCCC4)cccc23)nc(N(C)C)n1` [Example 81, N-Cyclopentyl-3-[2-(dimethylamino)-6-methylpyrimidin-4-yl]-2-(4-fluorophenyl)pyrazolo[1,5-α]pyridin-7-amine]: > 20 µM; `CCN(CC)c1cccc2c(-c3ccncc3)c(-c3ccc(F)cc3)nn12` [Example 59, N,N-Diethyl-2-(4-fluorophenyl)-3-(4-pyridinyl)pyrazolo[1,5-α]pyridin-7-amine]: 4 µM; `CSc1cccc2c(-c3cc(NC4CCCC4)ncn3)c(-c3ccc(F)cc3)nn12` [Example 83, N-Cyclopentyl-6-[2-(4-fluorophenyl)-7-(methylthio)pyrazolo[1,5-α]pyridin-3-yl]pyrimidin-4-amine]: 1.3 µM.
The same measure, in the same setting: next, `CCCCNc1nccc(-c2c(-c3ccc(F)cc3)nn3c(NC4CC4)cccc23)n1` [Example 33, 3-[2-(Butylamino)-4-pyrimidinyl]-N-cyclopropyl-2-(4-fluorophenyl)pyrazolo[1,5-α]pyridin-7-amine]: 0.2 µM; `Fc1ccc(-c2nn3c(Cl)cccc3c2-c2ccnc(-c3ccccc3)n2)cc1` [Example 73, 7-Chloro-2-(4-fluorophenyl)-3-(2-phenylpyrimidin-4-yl)pyrazolo[1,5-α]pyridine]: > 20 µM.
Compound `C=CCNc1cccc2c(-c3ccnc(NCCCC)n3)c(-c3ccc(F)cc3)nn12` [Example 54, N-Allyl-3-[2-(butylamino)-4-pyrimidinyl]-2-(4-fluorophenyl)pyrazolo[1,5-α]pyridin-7-amine] gave an IC50 of 0.5 µM.
For `Cc1cc(-c2c(-c3ccc(F)cc3)nn3c(NCC(=O)O)cccc23)nc(NC2CCCC2)n1` [Example 25, {[3-[2-(Cyclopentylamino)-6-methyl-4-pyrimidinyl]-2-(4-fluorophenyl)pyrazolo[1,5-α]pyridin-7-yl]amino}acetic acid], the IC50 stood at 15 µM.
In turn, `OCc1cc(-c2c(-c3ccc(F)cc3)nn3c(Cl)cccc23)nc(NC2CCCC2)n1` [Example 17, [6-[7-Chloro-2-(4-fluorophenyl)pyrazolo[1,5-α]pyridin-3-yl]-2-(cyclopentylamino)-4-pyrimidinyl]methanol] came in with a half-maximal inhibitory concentration (IC50) of 3 µM.
Same read-out and setting: next, `CCCCNc1cccc2c(-c3ccnc(NCCCO)n3)c(-c3ccc(F)cc3)nn12` [Example 38, 3-({4-[7-(Butylamino)-2-(4-fluorophenyl)pyrazolo[1,5-α]pyridin-3-yl]-2-pyrimidinyl}amino)-1-propanol]: 5 µM.
